Publication PMC8155809 (The Journal of General Physiology, 2021)

Target: T1, TREK-2 Y315A (Homo sapiens, UniProt P57789, Y310A)
T1 construct: expressed in transfected cells; host or cells: HEK293 cells, transient transfection with pcDNA3
T1 sequence (P57789 1-543 isoform P57789-4 Y315A): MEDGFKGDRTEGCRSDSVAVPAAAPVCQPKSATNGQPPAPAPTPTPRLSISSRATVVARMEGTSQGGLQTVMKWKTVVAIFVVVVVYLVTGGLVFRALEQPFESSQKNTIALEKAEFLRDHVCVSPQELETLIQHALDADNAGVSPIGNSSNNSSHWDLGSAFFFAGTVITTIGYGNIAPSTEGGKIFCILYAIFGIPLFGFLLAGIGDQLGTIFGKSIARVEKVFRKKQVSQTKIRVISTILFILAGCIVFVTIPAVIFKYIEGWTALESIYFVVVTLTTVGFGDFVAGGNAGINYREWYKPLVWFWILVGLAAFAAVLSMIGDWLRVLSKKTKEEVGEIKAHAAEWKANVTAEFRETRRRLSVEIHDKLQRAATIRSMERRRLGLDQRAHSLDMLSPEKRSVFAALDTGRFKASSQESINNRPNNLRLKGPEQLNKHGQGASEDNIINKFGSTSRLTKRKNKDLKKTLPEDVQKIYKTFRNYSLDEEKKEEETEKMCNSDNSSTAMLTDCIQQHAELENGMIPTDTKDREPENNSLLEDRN
Test: Single-channel recordings of TREK-2 Y315A mutant in excised patches from HEK293 cells
Format: cell-based
Conditions: 10 µM NFx; before desensitization (effect dramatically reduced within ∼30 s)
Experimental: HEK293 cells were cultured in DMEM (Sigma) containing 10% FBS (Life Technologies), 3 mM glucose, and 2 mM glutamine at 37°C in a humidified atmosphere of 5% CO2/[…] at 37°C. Cells were transiently transfected with 0.2 µg channel pcDNA3 per dish using FuGENE 6 according to the manufacturer’s instructions. Cells were used 1–2 d after transfection.
For currents recorded in Xenopus laevis oocytes, giant-patch electrodes were pulled from thick-walled borosilicate glass and polished to give pipette resistances of ∼0.3–0.5 MΩ when filled with patch solution. […] Patches were perfused via a gravity-flow perfusion system and a HEKA EPC 10 USB single computer–controlled amplifier was used and currents recorded using a Patchmaster v2 × 90.5 (HEKA Electronics), filtered at 1 kHz, and sampled at 10 kHz. For currents recorded in HEK293 cells, patch electrodes were pulled from thick-walled borosilicate glass and polished to give pipette resistances of ∼3–5 MΩ when filled with patch solution. The currents were recorded from excised patches with both intracellular and extracellular solution containing 200 mM KCl and 10 mM HEPES (pH 6.0 with KOH). […] Data were acquired with pClamp and recorded using an Axopatch 200B (Molecular Devices), filtered at 5 kHz, and sampled at 200 kHz. Single-channel currents were analyzed in an identical manner to those obtained from bilayers (see above). […]

NCCC(Oc1ccc(C(F)(F)F)cc1)c1ccccc1 (stereo not shown) [NFx, norfluoxetine]
initial reduction of channel Po: > 90%
